Test results published in patent US11160885B2, “Phospholipid composition and microbubbles and emulsions formed using same” (Microvascuar Therapeutics LLC, priority 2014, dated 2021).

Key:
[1] = cited from earlier work
[2] = Ionization of DPPA as a function of pH; assay type: physicochemical
Description: As those skilled in the art will appreciate, DPPA comprises two acidic protons. The pKa for the second acidic proton is about 7.9. FIG. 1 graphically depicts the ionization of DPPA as a function of pH. Curve 110 recites the percent of mono-anion 6 present, and curve 120 recites the percent of di-anion 7 present. At a pH of about 4 and higher, the combined percentages of mono-anion 6 and di-anion 7 total 100.
At a pH of about 7.9, DPPA comprises about 50 percent mono-anion 7 and about 50 percent di-anion 8. At a pH of about 7.0, DPPA comprises about 85 percent mono-anion 7 and about 15 percent di-anion 8.

percent di-anion ([2]; pH of about 7.0): about 15% | percent mono-anion ([2]; pH of about 7.0): about 85% | percent di-anion ([2]; pH of about 7.9): about 50% | percent mono-anion ([2]; pH of about 7.9): about 50%
SMILES: CCCCCCCCCCCCCCCC(=O)OC[C@H](COP(=O)(O)O)OC(=O)CCCCCCCCCCCCCCC [DPPA, dipalmitoylphosphatidic acid]
pKa for the second acidic proton [1]: about 7.9
